Assay results from US20260150838A1, “ASCAROSIDE DERIVATIVES” (Ascribe Bioscience Inc., priority 2023, published 2026).
Where “and” joins values, the source holds several entries; their conditions need not be identical. Identical values can stand only once.

Key:
Bipolaris sorokiniana = test: wheat pathogen assay (fungal infection of wheat seedlings); type: in vivo; conditions: FIG. 1; for infection symptoms (symptomatic areas relative to the total leaf area) compared to mock: wheat cv. Louise sprayed with 1 μM solution in 0.1% Tween-20, inoculated 48 hours later with Bipolaris sorokiniana spores; for efficacy in reducing fungal infection relative to ascr #18: wheat, 1 μM solutions
Procedure: The products of Examples 1, 1a to 1, 1c (hereafter referred to as compounds 1a, 1b, and 1c) were evaluated in a wheat pathogen assay to assess the potential of these analogs to prevent crop damage caused by a fungal pathogen. Wheat seeds of cv. Louise were planted in potting soil and grown for two weeks in a growth chamber at 26° C. and 23° C., respectively, with 16 hours of light. After two weeks, the plants were sprayed with a 1 μM solution of ascr #18, or compounds 1a, 1b, or 1c containing 0.1% (v/v) Tween®-20 in water solution, or with a mock solution only containing 0.1% (v/v) Tween®-20. 48 hours after treatment, the wheat plants were inoculated with a Bipolaris sorokiniana spore solution (with 15000 spores/ml) and placed in a dark grow tent with high humidity (>80% RH) for 24 hours at 23° C. Subsequently, the plants were moved to a high humidity environment (>80% RH) at 23° C. and 12 hours of light and dark until fungal infection was visible on the leaves of the mock-treated plants (usually after about four days). Symptoms were evaluated by photographing the infected leaves and processing the images through machine learning image analysis software (Ilastik) to determine the symptomatic areas relative to the total leaf area. […] The infection levels in the treated plants were similar to those treated with 1 μM ascr #18. […] In FIG. 1, error bars depict standard error of the mean for a total n≥35 plants across 4 independent experiments. Outliers were removed with the GraphPad ROUT method, and significance determined by a one-way ANOVA test.

[1] = uptake and metabolism of ascaroside amides in alfalfa seedlings (LC-MS of tissue extracts); type: in vivo; conditions: for hydrolysis or metabolism by the plant: alfalfa plants, timeframe shown (24 h + 4 h)
Procedure: Ascaroside analogs 1a, 1b, and 1c were also evaluated in alfalfa seedlings to assess whether plants take up these analogs and whether they are hydrolyzed or metabolized to other ascarosides (specifically to ascr #18 and/or ascr #18 metabolites). The ascr #18 metabolism was evaluated by assaying the plant tissues for the known ascaroside metabolite ascr #9.
(§1) Alfalfa seeds were germinated in the dark on culture plates (10 seeds per plate) containing Gelzan growth medium and were allowed to grow for 3-4 days before treatment. Treatment consisted of flooding the plates with 10 μM aqueous solutions of one of the ascaroside analogs 1a, 1b, or 1c, with ascr #18 (as a positive control), or with plain water as a mock treatment (5 ml total volume, solutions prepared in MQ water). Each experiment was performed in duplicate. After 24 hours, the plates were moved to an illuminated growth chamber for 4 hours before sampling.
Sprouts were collected, thoroughly rinsed with MQ water, dried, flash-frozen, and homogenized. The homogenized tissues were extracted with 100% ethanol and the extracts were analyzed using high-resolution liquid chromatography-mass spectrometry (LC-MS). LC-MS analysis was performed using a Dionex 3000 UPLC coupled with a Thermo Q Exactive high-resolution mass spectrometer equipped with a HESI ion source. To measure ascarosides, samples were chromatographed using an Agilent Zorbax Eclipse column (150 mm×2.1 mm, particle size 1.98 μm) maintained at 40° C. with a 0.5 ml/min flow rate. Solvent A: 0.1% formic acid in water; Solvent B: 0.1% formic acid in acetonitrile. A solvent mixture using 1% B was used for 1.5 min after injection, followed by a linear gradient up to 99% B at 9.5 min, followed by 0.75 min of 99% B, then back to 1% B over 0.5 min, and finally held at 1% B for an additional 1.25 min to re-equilibrate the column (total time: 12 min, with needle washing and file writing: ˜14 min). Mass spectrometer parameters: spray voltage (−3.0 kV or +3.5 kV); capillary temperature 380° C.; probe heater temperature 400° C.; sheath, auxiliary, and sweep gas 60, 20, and 2 AU, respectively—S-Lens RF level: 50, resolution 120,000 at m/z 200, AGC target 3E6. Samples were injected and analyzed in negative electrospray ionization mode with an m/z range of 100-1000. Ascr #18 (C17H32O6) ionizes in negative ion mode as C17H31O6, m/z=331.2126, retention time 6 minutes using the above chromatographic conditions. Samples were also analyzed in positive ionization mode.
(§2) The treatment solutions used to treat the sprouts were also analyzed assayed and the results are shown in the Column of Table 1 labeled “Input” In each case, only the analog, or ascr #18 respectively is detected, indicating the molecules are stable in the treatment solutions.

[2] = LC-MS analysis of the treatment solutions (Input); type: physicochemical; conditions: 10 μM aqueous treatment solutions used to treat the sprouts; Rep1/Rep2
Procedure: as §1
Sprouts were collected, thoroughly rinsed with MQ water, dried, flash-frozen, and homogenized. The homogenized tissues were extracted with 100% ethanol and the extracts were analyzed using high-resolution liquid chromatography-mass spectrometry (LC-MS). […] Samples were injected and analyzed in negative electrospray ionization mode with an m/z range of 100-1000. […] Samples were also analyzed in positive ionization mode.
as §2

Row | Structure (SMILES) | infection symptoms (symptomatic areas relative to the total leaf area) compared to mock (Bipolaris sorokiniana) | efficacy in reducing fungal infection relative to ascr #18 (Bipolaris sorokiniana) | hydrolysis or metabolism by the plant [1] | Input (LCMS detector response for diagnostic ion of the analog or ascr#18) [2] | uptake by plants ([1]; alfalfa sprouts, 10 μM) | half-life in the plant relative to ascr #18 ([1]; alfalfa, inferred from LC-MS data of Table 1)
1 | C[C@H](CCCCCCCCC(=O)NCCO)O[C@@H]1O[C@@H](C)[C@H](O)C[C@H]1O [1b, (R)-10-(((2R,3R,5R,6S)-3,5-dihydroxy-6-methyltetrahydro-2H-pyran-2-yl)oxy)-N-(2-hydroxyethyl)-undecanamide] | reduced infection symptoms | comparable to that of ascr #18 | hydrolyzed or metabolized by the plant |  |  | 
2 | C[C@H](CCCCCCCCC(N)=O)O[C@@H]1O[C@@H](C)[C@H](O)C[C@H]1O [1c, (R)-10-(((2R,3R,5R,6S)-3,5-dihydroxy-6-methyltetrahydro-2H-pyran-2-yl)oxy)-undecanamide] | reduced infection symptoms | comparable to that of ascr #18 | hydrolyzed or metabolized by the plant |  |  | 
3 | CCN(CC)C(=O)CCCCCCCC[C@@H](C)O[C@@H]1O[C@@H](C)[C@H](O)C[C@H]1O [compound 1a, (R)-10-(((2R,3R,5R,6S)-3,5-dihydroxy-6-methyltetrahydro-2H-pyran-2-yl)oxy)-N,N-diethylundecanamide] | reduced infection symptoms | comparable to that of ascr #18 | not hydrolyzed or metabolized | 4.03E+06 and 6.78E+06 | taken up by plants | longer half life than ascr #18 or the other analogs tested
